This note sets out measurements from patent US7351397B2, “Stabilization of radiopharmaceutical compositions using hydrophilic 6-hydroxy chromans” (CIS bio international, priority 2000, dated 2008).

What all share (assay type): physicochemical
The nature of data set [1]: Radiolabelling yield (RCP) by reversed phase HPLC of 99mTc-labelled bisamide bisthiol non-peptide chelator with and without Trolox. The source says: The non-peptide chelator was radiolabelled with ^99mTc in the presence and absence of Trolox® using the placebo vial heated preparation procedure as described in Example 4.
A short description of data set [2]: Radiolabelling yield (RCP) by reversed phase HPLC of 99mTc-labelled depreotide from lyophilized kits with Trolox. Conditions: prepared from formulated kits. The protocol:
Lyophilized kit vials were prepared containing depreotide, Trolox®, and other components as described in Table 3.
Some of the formulations were also radiolabelled in a heated preparation (heat in a boiling water bath for 10 minutes).

Data set [3] in a line: Radiolabelling yield (RCP) by reversed phase HPLC of 99mTc-labelled glycoprotein IIb/IIIa receptor-binding peptide with and without Trolox. The protocol:
Lyophilized kit vials were prepared containing the peptide (50 μg), sodium glucoheptonate dihydrate (10 mg), stannous chloride dihydrate (50 μg), and edetate disodium dihydrate (100 μg). The formulation was adjusted to pH 7.4 prior to lyophilization.
The lyophilized kits were radiolabelled with ^99mTc in the presence and absence of Trolox®. To the Trolox® preparation was added 2 mg Trolox® in 100 μL ethanol and 100 μL saline. The ethanol was necessary to aid in the dissolution of the Trolox®. To the control preparation was added 100 μL ethanol and 100 μL saline to account for the additional saline or ethanol added with the Trolox.

Data set [4] can be described thus: Radiolabelling yield (RCP) by reversed phase HPLC of 99mTc depreotide from lyophilized kits after accelerated temperature (40° C.) storage. Conditions: lyophilized kits thermally stressed by accelerated temperature storage. The procedure: Lyophilized kits were prepared containing depreotide, Trolox®, and other components as described in Table 5. […] The kits were stored for one week at 40° C. Some kits were also stored at −10° C. as controls.

Data set [5] in a line: Radiolabelling yield (RCP) by reversed phase HPLC of 99mTc-labelled monoamine, diamide, single thiol peptide chelator with and without Trolox. The protocol:
Lyophilized kit “placebo” vials were prepared containing sodium glucoheptonate dihydrate, edetate disodium dihydrate, and stannous chloride dihydrate at the concentrations set forth in Table 1 (control formulation).
The peptide chelator was radiolabelled with ^99mTc in the presence and absence of Trolox®. The peptide chelator was dissolved in water at a concentration of 1 mg/mL, and 50 μg (50 μL) of the peptide was added to each of three placebo vials. Ethanol and Trolox® were added to the control and Trolox®, preparations as described in Example 11. In addition, 100 μL phosphate buffered saline (PBS) was added to each preparation.

Data set [6] can be described thus: Radiolabelling yield (RCP) by reversed phase HPLC of 99mTc-labelled depreotide from lyophilized kits with gentisic acid. Particulars: when included in formulated kits. The procedure:
Lyophilized kit vials were prepared containing depreotide, GA, and other components as described in Table 1. Formulations were adjusted to pH 7.4 or 8.5 (as noted) prior to lyophilization.

Each structure is given as a SMILES string.

Consider `Cc1c(C)c2c(c(C)c1O)CCC(C)(C(=O)O)O2` (stereo not drawn) [Trolox®, 6-hydroxy-2,5,7,8-tetramethylchroman-2-carboxylic acid], for which the “effect on radiolabelling yield and stability of 99mTc-labelled non-peptide chelator” value in data set [1] is “increases the radiolabelling yield and the stability”. Besides, the “effect on radiolabelling yield and stability of 99mTc depreotide” value in data set [2] was “increases the radiolabelling yield and the stability”. Further, the “effect on radiolabelling yield and stability of 99mTc-peptide” value in data set [3] was “increases the radiolabelling yield and the stability”. Further, in data set [4], the “stabilization of 99mTc-depreotide” value is given as “stabilizes”. The “effect on radiolabelling yield and stability of 99mTc-labelled peptide chelator” value in data set [5] was “increases the radiolabelling yield and the stability”.
In the case of `O=C(O)c1cc(O)ccc1O` [gentisic acid, Gentisic acid], the “effect on radiolabelling yield and stability of 99mTc-depreotide” value in data set [6] is “decreases the radiochemical purity”.
